Source: patent publication US9072729B2, “Method for treating fibrosis and cancer with imidazolium and imidazolinium compounds” (Agency for Science, Technology and Research, priority 2008, dated 2015)

Columns and labels:
SMAA = experiment: Real-time RT-PCR of SMAA mRNA in HSC T6 cells; type: cell-based, rat; conditions: for change of SMAA mRNA: 8 h
Procedure: (§1) FIG. 6. (a) DBZIM and (b) TDBZIM suppressed the mRNA expression of HSC activation markers (GFAP and SMAA) and fibrotic endpoints (col1a1 and fibronectin) in a dosage-dependent manner. […] The ΔΔCt method was used for relative quantification with vehicle control sample being the calibrator. The data were presented as mean and SEM, N=6, *^aP<0.05, *^bP<0.01, *^cP<0.005, and *^dP<0.0005, when compared to the vehicle control. FIG. 7. DBZIM (100 μM) and TDBZIM (100 μM) suppressed (a) GFAP, (b) SMAA, (c) col1a1 and (d) fibronectin mRNA expression in a time-dependent manner. HSC T6 cells were treated with DBZIM and TDBZIM, and assayed after 8, 24 and 48 h. […] FIG. 14. […] (50 μM), […] (50 μM), […] (10 μM) and DBZBIM (100 μM) were dissolved in DMSO with a final DMSO concentration of 0.2% (v/v). DPIM (2 mM), EGCG (25 μM) and DBZIM (100 μM) were dissolved in H2O. β-actin was used as the normalization gene; its expression was constant under the experimental conditions. Relative quantification was normalized against the respective vehicle control. The data were presented as mean and SEM, N=6, *^aP<0.05, *^cP<0.005, and *^dP<0.0005, when compared to the vehicle control. Total RNA was isolated using NucleoSpin RNAII isolation kit ([…], Germany), and quantified by ND-100 spectrophotometer (Nanodrop Technologies, DE, USA). The details of real-time RT-PCR were reported elsewhere (Zhang et al. 2006). Briefly, it was a two-step real-time RT-PCR using Taqman chemistry. Total RNA was first reverse transcribed to cDNA, and real-time PCR was run and detected in ABI 7500 Fast Real-Time PCR System (Applied Biosystems, CA, USA). Primers and probes for rat GFAP, SMAA, collagen Ia1, fibronectin, TGF-β1, TGF-β receptor I (TGFβ RI) and IL-6 were ordered from Taqman's assay-on-demand database. Rat β-actin was used as normalization gene, and its expression level was constant (CT difference was <±0.5) throughout the experimental settings in this study. Relative quantification of target mRNA was calculated using comparative threshold cycle method (ΔΔCT) as described in User Bulletin #2 (ABI Prism 7700 Sequence Detection System). Relative quantification was given by 2^-ΔΔCT to express the up-regulation or down regulation of the target gene under the treatments compared to the control.

col1a1 = experiment: Real-time RT-PCR of col1a1 mRNA in HSC T6 cells; type: cell-based, rat
Procedure: as §1

fibronectin = experiment: Real-time RT-PCR of fibronectin mRNA in HSC T6 cells; type: cell-based, rat; conditions: for suppression of fibronectin mRNA: DPIM 2 mM, TMPHIM 50 μM, DBZIM 100 μM
Procedure: as §1

CAT = experiment: Catalase (CAT) activity assay in treated cells; type: cell-based, rat; conditions: for attenuation of CAT activity: 48 h
Procedure: FIG. 4. […] Enzyme activity was normalized against total protein. DBZIM was dissolved in DMSO, and TDBZIM was dissolved in H2O. The data were presented as mean and SEM, N=6, *^aP<0.05, *^bP<0.01, *^cP<0.005, and *^dP<0.0005, when compared to the vehicle control.
Activity levels of three anti-oxidant enzymes, GPx, CAT and SOD, were determined using assay kits from Cayman Chemical. To assay GPx and CAT activities, protein samples were harvested in ice-cold PBS containing 1 mM of EDTA. […] Protein content was determined by BCA assay.
CAT activity was determined based on reaction of the enzyme with methanol in the presence of H2O2. The formaldehyde produced was measured spectrophotometrically at 540 nm using Purpald as the chromogen. CAT activity was expressed as nmol/min/mg protein.

GFAP = experiment: Real-time RT-PCR of GFAP mRNA in HSC T6 cells; type: cell-based, rat
Procedure: as §1

HSC-T6 cells = experiment: Cellular ROS determination (DCF labeling); type: cell-based, rat; conditions: 48 h
Procedure: FIG. 2. (a) DBZIM and (b) TDBZIM attenuated cellular ROS level. HSC T6 cells were incubated with DBZIM (10, 50, 100 and 300 μM), TDBZIM (10, 50 and 100 μM), NAC (1 mM) and EGCG (25 μM) for 48 h before assaying for cellular ROS levels. The data were presented as relative values after normalizing against a vehicle control. The data were presented as mean and SEM, N=6, *^bP<0.01, *^cP<0.005, and *^dP<0.0005 when compared to the vehicle, control.
The ROS level of treated HSC-T6 cells was determined using the dichlorofluorescein (DCF) labeling method (Molecular Probes Inc., OR, USA). Cultured cells were harvested by trypsinization, and resuspended in phenol red-free DMEM (Invitrogen). Cells were then incubated with 10 μg/ml of 2′,7′-dichloro-fluorescein diacetate (DCFH-DA) in DMEM for 15 min before resuspension in DMEM for assaying. Cell solution was dispensed into a black-wall 96-well pate in triplicate for fluorescence readout at Ex=485 nm and Em=530 nm with a Tecan Safire II plate reader. The fluorescence unit was normalized against viable cell numbers, which were determined using 3-(4,5-dimethylthiazol-2-yl)-2,5-diphenyl tetrazolium bromide (MTT assay, Promega, Wis., USA). Cellular ROS level was expressed relative to the control sample.

[1] = General toxicity of IMSs in mice; type: in vivo; conditions: mouse, in vivo, ip; FVB mice, intraperitoneally every other day for 2 weeks; estimated
Procedure: (§2) IMSs (DPIM and DBZIM) were dissolved in saline, and administered to Friend virus B-Type (FVB) mice (weighing ˜25-30 g) intraperitoneally every other day for 2 weeks. The dosages were 0, 200, 300, 350, 400 and 500 mg/kg for DPIM, and 0, 10, 30, 35, 40 and […] for DBZIM. The injection volume was maintained at 100-160 μl. The mortality rate of mice was assessed after the treatment. The animal experimental protocol was approved by the Institutional Animal Care and Use Committee (IACUC) of Biological Resource Center (BRC) at Biopolis, Singapore.
(§3) In the preliminary toxicity studies, two forms of IMSs were selected for in vivo testing with FVB inbred mice. For DBZIM, the lethal dosage was 50 mg/kg and LD50 was estimated to be 30-40 mg/kg. For DPIM, the lethal dosage was 500 mg/kg and LD50 was ˜300-400 mg/kg.

FVB mice = experiment: General toxicity of IMSs in mice; type: in vivo; conditions: intraperitoneally every other day for 2 weeks
Procedure: as §2, §3

Compound	change of SMAA mRNA (SMAA; 100 μM)	decrease of col1a1 mRNA (col1a1; 100 μM, 8 h) [%]	decrease of col1a1 mRNA (col1a1; 100 μM, 24 h) [%]	decrease of col1a1 mRNA (col1a1; 100 μM, 48 h) [%]	decrease of fibronectin mRNA (fibronectin; 1 μM, 48 h) [%]	decrease of fibronectin mRNA (fibronectin; 100 μM, 8 h) [%]	decrease of fibronectin mRNA (fibronectin; 100 μM, 24 h) [%]	decrease of fibronectin mRNA (fibronectin; 100 μM, 48 h) [%]	attenuation of CAT activity (CAT; 10 μM) [%]	attenuation of CAT activity (CAT; 50 μM) [%]	attenuation of CAT activity (CAT; 100 μM) [%]	decrease of GFAP mRNA (GFAP; 10 μM, 48 h) [%]	decrease of GFAP mRNA (GFAP; 100 μM, 8 h) [%]	decrease of GFAP mRNA (GFAP; 100 μM, 24 h) [%]	decrease of GFAP mRNA (GFAP; 100 μM, 48 h) [%]	suppression of fibronectin mRNA (fibronectin; 48 h) [%]	LD50 at 2 weeks [1] [mg/kg]	lethal dosage (FVB mice) [mg/kg]	also measured
1,3,5-tris(4-methyl-imidazolium)-linked cyclophane.3Br [TDBZIM]	no change	22	40	53	32	25	29	43	25	31	20	20	30	36	60				decrease of SMAA mRNA (SMAA; 1 μM, 48 h): 27%; transient induction of SMAA mRNA (SMAA; 100 μM, 24 h): up to 79%; decrease of col1a1 mRNA (col1a1; 1 μM, 48 h): 39%; decrease of col1a1 mRNA (col1a1; 10 μM, 48 h): 36%; decrease of fibronectin mRNA (fibronectin; 10 μM, 48 h): 28%; decrease of GFAP mRNA (GFAP; 1 μM, 48 h): 32%; suppression of cellular ROS level (HSC-T6 cells; 10 μM): 19%; suppression of cellular ROS level (HSC-T6 cells; 100 μM): 36%
[Br-].c1ccc(Cn2cc[n+](Cc3ccccc3)c2)cc1 [DBZIM, 1,3-bisbenzylimidazolium bromide]	no change	22	29	21	19	15	17	25	19	16	12	18	28	40	56	26	30 to 40	50	decrease of SMAA mRNA (SMAA; 100 μM, 48 h): 21%; decrease of SMAA mRNA (SMAA; 300 μM, 48 h): 58%; decrease of col1a1 mRNA (col1a1; 300 μM, 48 h): 44%; decrease of fibronectin mRNA (fibronectin; 300 μM, 48 h): 40%; attenuation of CAT activity (CAT; 300 μM, without statistical significance): 8%; decrease of GFAP mRNA (GFAP; 300 μM, 48 h): 86%; suppression of cellular ROS level (HSC-T6 cells; 50 μM): 25%; suppression of cellular ROS level (HSC-T6 cells; 300 μM): 34%
CC(C)n1cc[n+](C(C)C)c1.F[B-](F)(F)F [DPIM, 1,3-diisopropylimidazolium tetrafluoroborate]																48	300 to 400	500	suppression of SMAA mRNA (SMAA; 48 h, DBIM 1 mM, DPIM 2 mM, AMIM 50 μM, TMPHIM 50 μM): 78%; suppression of col1a1 mRNA (col1a1; 48 h, DBIM 1 mM, DPIM 2 mM, TMPHIM 50 μM, DPPHIM 10 μM): 61%; suppression of GFAP mRNA (GFAP; 48 h, DPIM 2 mM, AMIM 50 μM, TMPHIM 50 μM, DBZBIM 100 μM): 78%
(−)-Epigallocatechin gallate [EGCG, reference compound]																			suppression of CAT activity (references) (CAT; EGCG, NAC (FIG. 4c)): 13%; inhibition on HSC activation and fibrosis (GFAP, SMAA, fibronectin, col1a1 mRNA) (GFAP; EGCG 25 μM, 48 h): did not show significant inhibition; attenuation of cellular ROS level (references) (HSC-T6 cells; EGCG 25 μM, NAC 1 mM): 14%
